The values that follow come from publication PMC11989707, “Synthesis, Characterization, and Preliminary In Vitro Anticancer Activity of Zinc Complexes Containing Amino Acid-Derived Imidazolium-Based Dicarboxylate Ligands” (International Journal of Molecular Sciences, 2025).

Like-named read-outs stand apart in the source and are kept apart here.

For data set [1], the system named is HaCaT cells (human keratinocytes). In words: Resazurin cell viability assay, non-malignant keratinocytes. The class given is cell-based. The conditions noted are these: resazurin. Here is the method: (§1) The cytotoxicity of complexes 2 was evaluated in vitro by determining the half inhibitory concentrations (IC50) against four human cell lines: wild-type BRAF melanoma (MeWo), lung adenocarcinoma (A549), bladder cancer (T24), and non-cancerous skin keratinocytes (HaCaT). The IC50 values were calculated from cell viability values obtained after 72 h of exposure of the drug to cells using the resazurin assay. The viability results, summarized in Table 1 (as μM concentrations) and illustrated in Figure 4, also include the values of the selectivity index (SI). The SI was calculated by dividing the IC50 value in the non-cancerous cells by that in the cancer cells. The higher the SI value, the higher the selectivity of the compound against cancer cells. This parameter also allows for a comparison of the selectivity of the investigated compound with the selectivity of the standard anticancer drug. For comparison, the cytotoxicity of two clinical anticancer drugs, carboplatin and gemcitabine, as well as imidazolium dicarboxylate precursor ligands (HL^R, 1) was evaluated under identical experimental conditions (see viability graphs in Figure 4 and Figure S7). […] Two noteworthy observations can be drawn from Table 1. […] Carboplatin is used for the treatment of ovarian cancer, lung cancer, bladder cancer, and head and neck cancer. Second, these zinc-based complexes were more cytotoxic to cancer cells than to non-malignant HaCaT cells, underscoring their potential therapeutic selectivity.
(§2) HaCaT cells (human keratinocytes) A549 (human lung adenocarcinoma), MeWo (human melanoma), and T24 (human urinary bladder carcinoma) were purchased from Cell Lines Service (CLS). The cells were maintained in Dulbecco’s Modified Eagle Medium (DMEM) supplemented with 10% fetal bovine serum and 1% penicillin/streptomycin. All cell lines were cultured at 37 °C and 5% CO2 with saturating humidity.
(§3) The resazurin assay is a commonly used colorimetric/fluorescent method to assess cell viability. This approach is based on the ability of living cells to convert the blue dye resazurin into the pink soluble resorufin product. The number of viable cells is directly correlated with the amount of resorufin generated. Between 3000 and 6000 cells per well were seeded in 96-well plates and allowed to grow for 24 h. […] The compounds were dissolved in sterile water to prepare a stock solution. Working solutions were obtained by serial dilution in the culture medium and were used immediately to treat the cells. Following this treatment period, the cells were rinsed once with phosphate buffered saline (PBS), and 150 μL of resazurin solution (20 µg/mL in medium) was added to each well. The plates were then incubated for 4–5 h at 37 °C with 5% CO2. Finally, absorbance was measured at 540 and 620 nm using a multiwell plate spectrophotometer (Imark Bio Rad Laboratories Inc., Hercules, CA, USA). The results were reported as percentages of cell viability compared to untreated controls. All data represent the mean ± standard error of the mean (SEM) of at least three independent experiments. The selectivity index (SI) values for each cancer cell line were determined by calculating the ratio of the IC50 value in the non-malignant HaCaT cell line to the IC50 value in the corresponding cancer cell line, based on data from each independent experiment.
(In general: Alamar Blue is a resazurin reagent that responds to reducing activity.)

Data set [2] relates to A549 (human lung adenocarcinoma). In words: Resazurin cell viability assay, lung adenocarcinoma. It counts as cell-based. The conditions noted are these: for IC50: resazurin. Here is the method: as §1, §2, §3
In data set [3] the test system is MeWo (human melanoma). In words: Resazurin cell viability assay, melanoma. It counts as cell-based. The following applies: for IC50: resazurin; for Selectivity Index MeWo: IC50 HaCaT / IC50 MeWo. Here is the method:
as §1, with “The IC50 values were calculated from cell viability values obtained after 72 h of exposure of the drug to cells using the resazurin assay.” left out
as §2, §3

Data set [4] deals with T24 (human urinary bladder carcinoma). As to the kind of experiment: Resazurin cell viability assay, bladder cancer. The class given is cell-based. The following applies: for IC50: resazurin. Here is the method:
as §1, with “The IC50 values were calculated from cell viability values obtained after 72 h of exposure of the drug to cells using the resazurin assay.” left out
as §2, §3

A short description of data set [5]: Resazurin cell viability assay, non-malignant keratinocytes. The conditions noted are these: human, HaCaT keratinocytes (non-malignant); HaCaT, highest concentrations tested, 72 h (Figure 4); read-out: viability of non-malignant cells. It counts as cell-based, human. Here is the method: as §1, §2, §3
The mark [6] stands for this setting: Homo sapiens, HaCaT, 96 h, mean ± SEM (Table S3), read-out: IC50 HaCaT (Non-malignant keratinocyte).
Where [7] appears, read: Homo sapiens, A549, 96 h, mean ± SEM (Table S3).
Setting [8] is: IC50 HaCaT / IC50 A549, 96 h, mean ± SEM (Table S3).
The mark [9] stands for this setting: Homo sapiens, MeWo, 96 h, mean ± SEM (Table S3).
The mark [10] stands for this setting: Homo sapiens, 96 h, mean ± SEM (Table S3).
[11] abbreviates: IC50 HaCaT / IC50 T24, 96 h, mean ± SEM (Table S3).
Setting [12] is: 96 h, mean ± SEM (Table S3), read-out: IC50 HaCaT (Non-malignant keratinocyte).
Where [13] appears, read: IC50 HaCaT / IC50 A549, 72 h, mean ± SEM.
Setting [14] is: IC50 HaCaT / IC50 T24, 72 h, mean ± SEM.

As usually defined, the IC50 is the point on the concentration scale where inhibition reaches its midpoint. For `O=c1[nH]cc(F)c(=O)[nH]1` [5-Fluorouracil], the IC50 in data set [1] (setting [6]) was 400 nM; in data set [2] (setting [7]) it was 1900 ± 700 nM; in data set [3] (setting [9]), 1300 nM; in data set [4] (setting [10]), 6300 ± 600 nM. Besides, the “Selectivity Index A549” value in data set [2] (setting [8]) was 0.3 ± 0.1. Further, the “Selectivity Index MeWo” value in data set [3] (96 h, mean ± SEM (Table S3)) worked out at 0.3 ± 0.0. Moreover, in data set [4] (setting [11]), the “Selectivity Index T24” value was 0.1 ± 0.0.
As to `N.N.O=C([O-])C1(C(=O)[O-])CCC1.[Pt+2]` [Carboplatin], the 50% inhibitory concentration (IC50) in data set [1] (72 h, mean ± SEM, monomer molecular weight used, read-out: IC50 HaCaT (Non-Malignant Keratinocyte)) came out at 35900 ± 3800 nM; in data set [1] (setting [12]), 11400 ± 1000 nM; in data set [2] (72 h, mean ± SEM), 42900 ± 1400 nM; in data set [2] (96 h, mean ± SEM (Table S3)) it was 21100 ± 4000 nM; in data set [3] (72 h, mean ± SEM) it was 100000 ± 17400 nM; in data set [3] (96 h, mean ± SEM (Table S3)), 23000 ± 5500 nM. Moreover, the IC50 was found to be 22100 ± 2600 nM in data set [4] (72 h, mean ± SEM) and 7300 ± 1100 nM in data set [4] (96 h, mean ± SEM (Table S3)). In addition, the “Selectivity Index A549” value in data set [2] (setting [13]) was determined as 0.8 ± 0.1; in data set [2] (setting [8]), 0.6 ± 0.2. The “Selectivity Index MeWo” value was determined as 0.4 ± 0.0 in data set [3] (72 h, mean ± SEM) and 0.6 ± 0.2 in data set [3] (96 h, mean ± SEM (Table S3)). Besides, the “Selectivity Index T24” value in data set [4] (setting [14]) was 1.7 ± 0.2.
On to `N.N.[Cl][Pt][Cl]` [Cisplatin], for which the concentration for half-maximal inhibition (IC50) in data set [1] (setting [12]) is 2200 ± 500 nM; in data set [2] (96 h, mean ± SEM (Table S3)) it was 3800 ± 100 nM; in data set [3] (96 h, mean ± SEM (Table S3)), 2200 ± 600 nM; in data set [4] (96 h, mean ± SEM (Table S3)), 1600 ± 400 nM. In addition, in data set [2] (setting [8]), the “Selectivity Index A549” value was 0.6 ± 0.1. Besides, the “Selectivity Index MeWo” value in data set [3] (96 h, mean ± SEM (Table S3)) is 1.0 ± 0.0. For the same molecule, the “Selectivity Index T24” value in data set [4] (setting [11]) is on record as 1.3 ± 0.0.
Take `COc1cccc2c1C(=O)c1c(O)c3c(c(O)c1C2=O)C[C@@](O)(C(=O)CO)C[C@@H]3O[C@H]1C[C@H](N)[C@H](O)[C@H](C)O1` [Doxorubicin]: the IC50 in data set [1] (setting [6]) is 8.1 nM; in data set [2] (setting [7]) it was 38.4 ± 6.6 nM; in data set [3] (setting [9]), 15.3 ± 3.6 nM; in data set [4] (setting [10]), 29.8 ± 2 nM. In data set [2] (setting [8]), the “Selectivity Index A549” value is reported as 0.2 ± 0.0. The “Selectivity Index MeWo” value in data set [3] (96 h, mean ± SEM (Table S3)) is given as 0.6 ± 0.1. In addition, the “Selectivity Index T24” value in data set [4] (setting [11]) stood at 0.3 ± 0.0.
A word on the viability: it is a per cent measure of how many cells are alive, often set against a control. On to `Nc1ccn([C@@H]2O[C@H](CO)[C@@H](O)C2(F)F)c(=O)n1` [Gemcitabine], for which the viability at 72 h in data set [5] worked out at 13%. Moreover, the IC50 in data set [1] (Homo sapiens, HaCaT, 72 h, mean ± SEM, read-out: IC50 HaCaT (Non-Malignant Keratinocyte)) is 22.1 ± 3.1 nM; in data set [1] (setting [6]), 10.6 ± 4.3 nM; in data set [2] (Homo sapiens, A549, 72 h, mean ± SEM), 5.6 ± 0.1 nM; in data set [2] (setting [7]), 1.9 ± 1.5 nM; in data set [3] (Homo sapiens, MeWo, 72 h, mean ± SEM), 7.3 ± 0.7 nM; in data set [3] (setting [9]), 1.9 ± 1.5 nM. Besides, the half-maximal inhibitory concentration (IC50) in data set [4] (Homo sapiens, 72 h, mean ± SEM) came out at 2.3 ± 0.3 nM; in data set [4] (setting [10]) it was 1.7 ± 1.5 nM. Also, the “Selectivity Index A549” value was 4.0 ± 0.5 in data set [2] (setting [13]) and 5.1 ± 0.3 in data set [2] (setting [8]). Besides, the “Selectivity Index MeWo” value came to 3.3 ± 0.8 in data set [3] (72 h, mean ± SEM) and 5.1 ± 0.2 in data set [3] (96 h, mean ± SEM (Table S3)). The “cell viability of melanoma cells” value in data set [3] (MeWo, highest concentrations tested, 72 h (Figure 4)) is on record as not below 35%. In addition, the “Selectivity Index T24” value in data set [4] (setting [14]) worked out at 9.3 ± 0.4; in data set [4] (setting [11]), 6.5 ± 1.4.
As to `CC(=O)O[C@H]1C(=O)[C@@]2(C)[C@H]([C@H](OC(=O)c3ccccc3)[C@]3(O)C[C@H](OC(=O)[C@H](O)[C@@H](NC(=O)c4ccccc4)c4ccccc4)C(C)=C1C3(C)C)[C@]1(OC(C)=O)CO[C@@H]1C[C@@H]2O` [Paclitaxel], the half-inhibitory concentration (IC50) came to 0.3 nM in data set [1] (setting [6]), 3.5 ± 0.9 nM in data set [2] (setting [7]), 0.7 nM in data set [3] (setting [9]) and 1.4 ± 0.3 nM in data set [4] (setting [10]). Moreover, in data set [2] (setting [8]), the “Selectivity Index A549” value came out at 0.1 ± 0.0. Besides, the “Selectivity Index MeWo” value in data set [3] (96 h, mean ± SEM (Table S3)) worked out at 0.5 ± 0.0. For the same molecule, the “Selectivity Index T24” value in data set [4] (setting [11]) amounted to 0.3 ± 0.1.
For `CCN(CC)CCNC(=O)c1c(C)[nH]c(/C=C2\C(=O)Nc3ccc(F)cc32)c1C` [Sunitinib], the half-inhibitory concentration (IC50) in data set [1] (setting [6]) was 1000 ± 100 nM; in data set [2] (setting [7]) it was 1500 ± 700 nM; in data set [3] (setting [9]) it was 900 ± 400 nM; in data set [4] (setting [10]) it was 1900 ± 1100 nM. Also, in data set [2] (setting [8]), the “Selectivity Index A549” value came out at 1.2 ± 0.6. Moreover, the “Selectivity Index MeWo” value in data set [3] (96 h, mean ± SEM (Table S3)) turned out to be 1.5 ± 0.5. Also, in data set [4] (setting [11]), the “Selectivity Index T24” value was 1.5 ± 0.8.
